These results are taken from US8785728B2, “AAD-12 event 1606 and related transgenic soybean lines” (priority 2010, dated 2014).

The subject of data set [1] is soybean event pDAB4472-1606. The data set is classed as in vivo, Glycine max. Conditions: 2,4-D dimethylamine salt 2240 g ae/ha applied at V3 and R2; adjusted mean. From the text:
The agronomic characteristics of soybean event pDAB4472-1606 were compared to an isogenic non-transformed soybean line across diverse geographical locations during the 2009 growing season. Data were collected and analyzed for the following agronomic characteristics: • 1.) Stand count: The number of plants in a representative one meter section of each row was counted. Taking data at the VC-V2 growth stage; • 2.) Emergence: Calculated by dividing Stand count (above) by number of seeds planted in a one meter section; • 3.) Seedling Vigor at V1-V3: Vigor is an overall estimate of the health of the plant. […] Recorded in the number of days from planting date; • 8.) Stand count at R2: The number of plants in a representative one meter section of row were counted. Note taken at the R2 growth stage; • 9.) Overall visual crop injury, chlorosis and necrosis at 1 day after R2 chemical application; • 10.) Overall visual crop injury, chlorosis and necrosis at 7 days after R2 chemical application; • 11.) Overall visual crop injury, chlorosis and necrosis at 14 days after R2 chemical application. • 12.) Disease incidence (if any) at R6 growth stage: Recorded the percentage of plants affected by the disease. 0-100% scale; • 13.) Insect damage (if any) at R6 growth stage: Recorded the percentage of plant tissue in the plot damaged by insects. 0-100% scale; • 14.) Plant height at senescence: Recorded the average height of the plants in each plot. Measured plants from the soil surface to the tip after leaves had fallen. Recorded measurement in centimeters; • 15.) Days to maturity. Recorded when 95% of the pods in a plot had reached their dry down color and were at ˜15% moisture or less. Recorded in days from planting; • 16.) Lodging: Recorded lodging at harvest time. […] (All plants in a plot standing straight=1 and all plants in the plot flat=5); • 17.) Shattering: Recorded shattering at harvest time. Recorded as an estimate of number of pods shattered. […] Recorded seed weight and moisture. […]

The subject of data set [2] is soybean event pDAB4472-1606. Description: Field expression level study with 2X spray rate of 2,4-D. The data set is classed as in vivo, Glycine max. To be noted: 2X spray rate (2,240 gm ae/ha of 2,4-D); at any point of the study. Here is the method:
Field expression level studies at various plant stages were performed on soybean event pDAB4472-1606 at pre V3, post V3, pre R2, and post R2. Expression values were similar for all the sprayed treatments as well as for the plots sprayed and unsprayed with 2,4-D herbicide. […] Average expression across all lineages in pre V3 plant stage was 200 ug/cm^2. After spraying 2,4-D the expression remained stable averaging […] across lineages. By the time the soybeans reached pre R2 the average expression had dropped slightly to an average of 250 ug/cm^2. After spraying 2,4-D the expression post R2 had remained at the previous average of 250 ug/cm^2.

For the compound `O=C(O)COc1ccc(Cl)cc1Cl` [2,4-D, 2,4-dichlorophenoxyacetic acid], in data set [1], the “Overall crop injury 1 day after V3 spray” value stood at 0.3%, the “Overall crop injury 7 days after V3 spray” value is given as 2.1% and the “Overall crop injury 14 days after V3 spray” value turned out to be 3.3%. For the same compound, the “Injury on the plants” value in data set [2] is reported as “no significant injury was observed”.
